Consider one compound from US20090246212A1, “DEVELOPMENT OF METHOD FOR SCREENING FOR DRUG CAPABLE OF IMPROVING PRODUCTION OF REGULATORY T CELLS AND METHOD FOR PRODUCING REGULATORY T CELLS USING IMMUNOSUPPRESSIVE MACROLIDE ANTIBIOTIC” (KYOTO UNIVERSITY, priority 2005, published 2009).

SMILES strings stand for the structures.

The test system of test [1] is IgE-like antibody. Conditions: in vivo; cited from earlier work.
In test [2] the test system is CD45RA^+CD25^−CD4^+ T cells. Description: FACS phenotype analysis of the T cell line from CD45RA^+CD25^−CD4^+ T cells cultured with rapamycin. The conditions noted are these: rapamycin 20 nM from day 40, collected day 50. It counts as cell-based, human. The procedure: PBMC derived from the subjects, or expanded T cell line were incubated with various antibodies for 30 min at 4° C. in the dark, washed, and analyzed using a BD FACSAria cell sorter and a FACSDiVA software (Becton Dickinson). The antibodies used were perCP-conjugated anti-CD4 mAb, biotin-conjugated anti-CD25 mAb, FITC-conjugated anti-CD45RA mAb, PE-conjugated anti-CD45RB mAb, anti-CD45RO mAb, anti-CD62L mAb, anti-CD38 mAb, anti-GITR mAb, and anti-TNFRII mAb. For intracellular staining with CTLA-4, the cells were subjected to cell surface staining, fixation, and permeabilization with Cytofix/Cytoperm solution (Becton Dickinson), and then intracellularly stained with PE-conjugated anti-CTLA-4.
CD45RA^+CD25^+CD4^+ T cells or CD45RA^+CD25^−CD4^+ T cells in human peripheral blood separated in the same manner as Example 1 (5×10̂4 cells/well) were stimulated with anti-human CD3 and CD28 conjugate beads in a ratio of 4 beads per cell in a 96-well round-bottomed culture plate containing 200 μl per well of a proliferation medium (AlyS505N (produced by Cell Science & Technology Institute) supplemented with 2% human AB serum) in the presence of human IL-2 (1000 U/ml, produced by Cell Science & Technology Institute). Rapamycin (20 nM, produced by Sigma) was added to the medium 0 or 40 days after the start of cultivation. Every 3 to 4 days, half of the medium was replaced with a fresh proliferation medium containing IL-2. If necessary, the cells were separated and repeatedly re-stimulated with anti-CD3/CD28 antibody conjugate beads every 10 to 14 days. Fifty days after the start of cultivation, the cells were collected and used for FACS analysis.
Expanded T cell lines were incubated with various antibodies for 30 minutes at 4° C. in the dark, washed, and analyzed using BD FACSAria cell sorter and FACSDiVA software (Becton Dickinson). The antibodies and staining conditions used were the same as Example 1.

Test [3] has as its system adjuvant-induced arthritis model. The conditions noted are these: model of rheumatoid arthritis; cited from earlier work.

As for `CO[C@H]1C[C@@H]2CC[C@@H](C)[C@@](O)(O2)C(=O)C(=O)N2CCCC[C@H]2C(=O)O[C@H]([C@H](C)C[C@@H]2CC[C@@H](O)[C@H](OC)C2)CC(=O)[C@H](C)/C=C(\C)[C@@H](O)[C@@H](OC)C(=O)[C@H](C)C[C@H](C)/C=C/C=C/C=C/1C` [rapamycin], the “formation of IgE-like antibody” value in test [1] is recorded as “effectively inhibited”. Moreover, in test [2], the “CD25 expression relative to CD45RA^−CD25^high+CD4^+ T cells in peripheral blood” value is “about ⅕”, the “CD45RA expression intensity relative to CD45RA^+CD25^−CD4^+ T cells at the start of cultivation” value is on record as “about 1 time”, the “CD45RO phenotype of the T cell line” value is “negative” and the “CD62L expression relative to CD45RA^−CD25^high+CD4^+ T cells in peripheral blood” value was “about ⅓”. The “GITR / CTLA4 / CD45RB phenotype of the T cell line” value in test [2] was “GITR^+CTLA4^+CD45RB^high+”. Moreover, the “efficacy in adjuvant-induced arthritis model” value in test [3] is “effective”.
